Literature values as cited in publication PMC5454779 (Biochemistry, 2011).

Biological target: ssDNA
Settings: read-out: Kd of cold shock protein A with ssDNA; single OB-fold; ref [9]

In the case of “cold shock protein A: cold shock protein consisting of a single OB-fold”, the Kd is listed as 6 µM.
